Here are results for eleven molecules from patent publication US20240116985A1, “STAPLED PEPTIDES AND METHODS THEREOF” (priority 2020, published 2024).

The target of data set [1] is T1, full-length beta-Catenin (Uniprot ID P35222) (Homo sapiens, UniProt P35222).
T1 construct: 10 nM full-length beta-Catenin (Uniprot ID P35222)
T1 sequence (P35222 1-781): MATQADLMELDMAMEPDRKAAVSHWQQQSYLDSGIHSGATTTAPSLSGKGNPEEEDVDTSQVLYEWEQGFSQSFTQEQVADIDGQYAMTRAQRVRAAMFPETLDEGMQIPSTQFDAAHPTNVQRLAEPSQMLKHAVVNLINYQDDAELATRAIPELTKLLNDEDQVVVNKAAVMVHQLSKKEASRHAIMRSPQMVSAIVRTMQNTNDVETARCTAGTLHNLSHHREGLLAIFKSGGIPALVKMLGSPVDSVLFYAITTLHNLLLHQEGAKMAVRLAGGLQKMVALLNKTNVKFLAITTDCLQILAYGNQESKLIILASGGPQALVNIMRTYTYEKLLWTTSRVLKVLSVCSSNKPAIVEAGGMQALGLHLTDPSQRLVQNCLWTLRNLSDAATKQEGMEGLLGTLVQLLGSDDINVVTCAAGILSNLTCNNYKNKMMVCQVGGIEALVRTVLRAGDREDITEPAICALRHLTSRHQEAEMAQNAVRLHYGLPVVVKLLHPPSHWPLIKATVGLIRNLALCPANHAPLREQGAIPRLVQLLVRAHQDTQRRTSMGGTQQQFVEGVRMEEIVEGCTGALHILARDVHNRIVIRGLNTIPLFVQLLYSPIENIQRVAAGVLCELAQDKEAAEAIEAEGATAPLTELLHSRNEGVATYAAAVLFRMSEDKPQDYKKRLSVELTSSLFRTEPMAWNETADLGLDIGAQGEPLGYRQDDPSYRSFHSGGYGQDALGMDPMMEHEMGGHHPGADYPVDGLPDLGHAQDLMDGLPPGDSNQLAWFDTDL
The data set is described as follows: Fluorescence polarization IC50 (beta-catenin / 5FAM-TCF4 10-53 competition). The data set is classed as binding.

The next data set in a line: CHI Log D procedure. The data set is classed as physicochemical. To be noted: pH 7.4.
[2] abbreviates: fluorescence polarization, read-out: beta-Catenin FP IC50.

Where two headings read alike, the source gives them in different places.

On to `CC[C@H](C)[C@@H]1NC(=O)[C@H](CC(=O)O)NC(=O)[C@]2(CC=CCCCC3(CCCC=CCCCCCC[C@@](C)(C(=O)N[C@@H](Cc4ccccc4OC)C(=O)N[C@@H](Cc4csc5ccccc45)C(=O)N[C@@H](Cc4c[nH]cn4)C(N)=O)NC(=O)[C@H](CC(N)=O)NC(=O)[C@H](Cc4ccccc4)NC(=O)[C@H](C)NC(=O)[C@H](C)NC(=O)[C@H](CC(=O)O)NC(=O)[C@H](CC(=O)O)NC3=O)NC1=O)CCCN2C(C)=O` (stereo partly drawn) [I-553, Ac-PL3-Asp-Ile-B5-Asp-Asp-Ala-Ala-Phe-Asn-S8-2OMeF-BztA-His-NH2], for which the IC50 in data set [1] (setting [2]) and in data set [1] (read-out: FP EC50) was 61 nM throughout. In addition, in the data set “CHI Log D procedure”, the “CHI Log D” value came out at 2.398.

In the case of `CC(=O)N1CCC[C@]12CC=CCCCC1(CCCC=CCCCCCC[C@@](C)(C(=O)N[C@@H](Cc3ccccc3)C(=O)N[C@@H](Cc3csc4ccccc34)C(=O)N[C@@H](CCC(N)=O)C(N)=O)NC(=O)[C@H](CCC(N)=O)NC(=O)[C@H](Cc3ccccc3)NC(=O)[C@H](C)NC(=O)[C@H](C)NC(=O)[C@H](CC(=O)O)NC(=O)[C@H](CC(=O)O)NC1=O)NC(=O)[C@H](CC(C)C)NC(=O)[C@H](CC(=O)O)NC2=O` (stereo partly drawn) [I-558, Ac-PL3-Asp-Leu-B5-Asp-Asp-Ala-Ala-Phe-Gln-S8-Phe-BztA-Gln-NH2], the IC50 in data set [1] (setting [2]) and in data set [1] (read-out: FP EC50) was 56 nM throughout. In addition, the “CHI Log D” value in the data set “CHI Log D procedure” was determined as 2.308.

Turning to `CC(=O)N1CCC[C@]12CC=CCCCC1(CCCC=CCCCCCC[C@@](C)(C(=O)N[C@@H](Cc3ccccc3)C(=O)N[C@@H](Cc3csc4ccccc34)C(=O)N[C@@H](CCC(N)=O)C(N)=O)NC(=O)[C@H](CCC(N)=O)NC(=O)[C@H](Cc3ccccc3)NC(=O)[C@H](C)NC(=O)[C@H](C)NC(=O)[C@H](CC(=O)O)NC(=O)[C@H](CC(=O)O)NC1=O)NC(=O)[C@H](CC(C)C)NC(=O)[C@H](CC(=O)O)NC2=O` (stereo partly drawn) [I-559, Ac-PL3-Asp-Leu-B5-Asp-Asp-Ala-Ala-Phe-Gln-S8-Phe-BztA-Gln-NH2], the IC50 in data set [1] (setting [2]) and in data set [1] (read-out: FP EC50) was 43 nM in each case. For the same molecule, in the data set “CHI Log D procedure”, the “CHI Log D” value is 2.341.

Regarding `CC(=O)N1CCC[C@]12CC=CCCCC1(CCCC=CCCCCCC[C@@](C)(C(=O)N[C@@H](Cc3ccccc3)C(=O)N[C@@H](Cc3csc4ccccc34)C(=O)N[C@@H](Cc3c[nH]cn3)C(N)=O)NC(=O)[C@H](CCC(N)=O)NC(=O)[C@H](Cc3ccccc3)NC(=O)[C@H](C)NC(=O)[C@H](C)NC(=O)[C@H](CC(=O)O)NC(=O)[C@H](CC(=O)O)NC1=O)NC(=O)[C@H](CC(C)C)NC(=O)[C@H](CC(=O)O)NC2=O` (stereo partly drawn) [I-560, Ac-PL3-Asp-Leu-B5-Asp-Asp-Ala-Ala-Phe-Gln-S8-Phe-BztA-His-NH2], the IC50 in data set [1] (setting [2]) and in data set [1] (read-out: FP EC50) was 81 nM each time. The “CHI Log D” value in “CHI Log D procedure” is 2.391.

For the molecule `CC(=O)N1CCC[C@]12CC=CCCCC1(CCCC=CCCCCCC[C@@](C)(C(=O)N[C@@H](Cc3ccccc3)C(=O)N[C@@H](Cc3csc4ccccc34)C(=O)N[C@@H](CCC(N)=O)C(N)=O)NC(=O)[C@H](CC(N)=O)NC(=O)[C@H](Cc3ccccc3)NC(=O)[C@H](C)NC(=O)[C@H](C)NC(=O)[C@H](CC(=O)O)NC(=O)[C@H](CC(=O)O)NC1=O)NC(=O)[C@H](CC(C)C)NC(=O)[C@H](CC(=O)O)NC2=O` (stereo partly drawn) [I-562, Ac-PL3-Asp-Leu-B5-Asp-Asp-Ala-Ala-Phe-Asn-S8-Phe-BztA-Gln-NH2], the IC50 in data set [1] (setting [2]) and in data set [1] (read-out: FP EC50) was 51 nM in each case. Moreover, the “CHI Log D” value in the data set “CHI Log D procedure” is 2.269.

For the molecule `CC(=O)N1CCC[C@]12CC=CCCCC1(CCCC=CCCCCCC[C@@](C)(C(=O)N[C@@H](Cc3ccccc3)C(=O)N[C@@H](Cc3csc4ccccc34)C(=O)N[C@@H](CCC(N)=O)C(N)=O)NC(=O)[C@H](CC(N)=O)NC(=O)[C@H](Cc3ccccc3)NC(=O)[C@H](C)NC(=O)[C@H](C)NC(=O)[C@H](CC(=O)O)NC(=O)[C@H](CC(=O)O)NC1=O)NC(=O)[C@H](C(C)C)NC(=O)[C@H](CC(=O)O)NC2=O` (stereo partly drawn) [I-566, Ac-PL3-Asp-Val-B5-Asp-Asp-Ala-Ala-Phe-Asn-S8-Phe-BztA-Gln-NH2], the IC50 in data set [1] (setting [2]) and in data set [1] (read-out: FP EC50) was 76 nM each time. Moreover, the “CHI Log D” value in “CHI Log D procedure” was determined as 2.175.

As to `CC[C@@H]1NC(=O)[C@H](CC(=O)O)NC(=O)[C@]2(CC=CCCCC3(CCCC=CCCCCCC[C@@](C)(C(=O)N[C@@H](Cc4ccccc4)C(=O)N[C@@H](Cc4csc5ccccc45)C(=O)N[C@@H](CCC(N)=O)C(N)=O)NC(=O)[C@H](CCC(N)=O)NC(=O)[C@H](Cc4ccccc4)NC(=O)[C@H](C)NC(=O)[C@H](C)NC(=O)[C@H](CCC(=O)O)NC(=O)[C@H](CC(=O)O)NC3=O)NC1=O)CCCN2C(C)=O` (stereo partly drawn) [I-568, Ac-PL3-Asp-Abu-B5-Asp-Glu-Ala-Ala-Phe-Gln-S8-Phe-BztA-Gln-NH2], the IC50 in data set [1] (setting [2]) and in data set [1] (read-out: FP EC50) was 73 nM each time. Further, in “CHI Log D procedure”, the “CHI Log D” value was 2.158.

For the molecule `CC[C@@H]1NC(=O)[C@H](CC(=O)O)NC(=O)[C@]2(CC=CCCCC3(CCCC=CCCCCCC[C@@](C)(C(=O)N[C@@H](Cc4ccccc4)C(=O)N[C@@H](Cc4csc5ccccc45)C(=O)N[C@@H](Cc4c[nH]cn4)C(N)=O)NC(=O)[C@H](CCC(N)=O)NC(=O)[C@H](Cc4ccccc4)NC(=O)[C@H](C)NC(=O)[C@H](C)NC(=O)[C@H](CCC(=O)O)NC(=O)[C@H](CC(=O)O)NC3=O)NC1=O)CCCN2C(C)=O` (stereo partly drawn) [I-570, Ac-PL3-Asp-Abu-B5-Asp-Glu-Ala-Ala-Phe-Gln-S8-Phe-BztA-His-NH2], the IC50 in data set [1] (setting [2]) and in data set [1] (read-out: FP EC50) was 56 nM each time. Moreover, the “CHI Log D” value in “CHI Log D procedure” is 2.219.

Regarding `CC[C@@H]1NC(=O)[C@H](CC(=O)O)NC(=O)[C@]2(CC=CCCCC3(CCCC=CCCCCCC[C@@](C)(C(=O)N[C@@H](Cc4ccccc4)C(=O)N[C@@H](Cc4csc5ccccc45)C(=O)N[C@@H](CCC(N)=O)C(N)=O)NC(=O)[C@H](CC(N)=O)NC(=O)[C@H](Cc4ccccc4)NC(=O)[C@H](C)NC(=O)[C@H](C)NC(=O)[C@H](CC(=O)O)NC(=O)[C@H](CC(=O)O)NC3=O)NC1=O)CCCN2C(C)=O` (stereo partly drawn) [I-572, Ac-PL3-Asp-Abu-B5-Asp-Asp-Ala-Ala-Phe-Asn-S8-Phe-BztA-Gln-NH2], the IC50 in data set [1] (setting [2]) and in data set [1] (read-out: FP EC50) was 73 nM in each case. Also, in “CHI Log D procedure”, the “CHI Log D” value is 2.064.

For the molecule `CC[C@H](C)[C@@H]1NC(=O)[C@H](CC(=O)O)NC(=O)[C@]2(CC=CCCCC3(CCCC=CCCCCCC[C@@](C)(C(=O)N[C@@H](Cc4ccccc4)C(=O)N[C@@H](Cc4csc5ccccc45)C(=O)N[C@@H](Cc4c[nH]cn4)C(N)=O)NC(=O)[C@H](CCC(N)=O)NC(=O)[C@H](Cc4ccccc4)NC(=O)[C@H](C)NC(=O)[C@H](C)NC(=O)[C@H](CC(=O)O)NC(=O)[C@H](CC(=O)O)NC3=O)NC1=O)CCCN2C(C)=O` (stereo partly drawn) [I-581, Ac-PL3-Asp-Ile-B5-Asp-Asp-Ala-Ala-Phe-Gln-S8-Phe-BztA-His-NH2], the IC50 in data set [1] (setting [2]) and in data set [1] (read-out: FP EC50) was 112 nM in each case. The “CHI Log D” value in the data set “CHI Log D procedure” worked out at 2.458.

`CC(=O)N1CCC[C@]12CC=CCCCC1(CCCC=CCCCCCC[C@@](C)(C(=O)N[C@@H](Cc3ccccc3)C(=O)N[C@@H](Cc3csc4ccccc34)C(=O)N[C@@H](Cc3c[nH]cn3)C(N)=O)NC(=O)[C@H](CC(N)=O)NC(=O)[C@H](Cc3ccccc3)NC(=O)[C@H](C)NC(=O)[C@H](C)NC(=O)[C@H](CC(=O)O)NC(=O)[C@H](CC(=O)O)NC1=O)NC(=O)[C@H](CCC(C)C)NC(=O)[C@H](CC(=O)O)NC2=O` (stereo partly drawn) [I-583, Ac-PL3-Asp-hLeu-B5-Asp-Asp-Ala-Ala-Phe-Asn-S8-Phe-BztA-His-NH2]: the IC50 in data set [1] (setting [2]) and in data set [1] (read-out: FP EC50) was 69 nM each time. In addition, the “CHI Log D” value in “CHI Log D procedure” came to 2.563.
